Test results taken from patent publication US12297190B2, “Modulators of STING (stimulator of interferon genes)” (PFIZER INC., priority 2019, dated 2025).

Each compound was assayed against R232-STING (Homo sapiens, UniProt Q86WV6, H232R) (assay: biochemical).
R232-STING, sequence (Q86WV6 155-341 H232R): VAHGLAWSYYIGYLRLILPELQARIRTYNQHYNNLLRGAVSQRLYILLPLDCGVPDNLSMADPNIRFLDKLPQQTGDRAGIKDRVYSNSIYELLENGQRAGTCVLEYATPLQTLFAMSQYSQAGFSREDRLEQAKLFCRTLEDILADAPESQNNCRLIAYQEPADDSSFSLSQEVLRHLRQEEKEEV

Row | Compound | Ki [nM]
1 | CCc1nc(C)n(C)c1-c1n[nH]c(-c2cc(C(N)=O)cc3c2cnn3C)n1 [ZZZ056, 4-[3-(4-ethyl-1,2-dimethyl-1H-imidazol-5-yl)-1H-1,2,4-triazol-5-yl]-1-methyl-1H-indazole-6-carboxamide] | > 990
2 | CCn1nc(C)c(F)c1-c1nnc(-c2cc(C(N)=O)cn3c(C(=O)O)ncc23)[nH]1 [ZZZ057, 6-carbamoyl-8-[5-(1-ethyl-4-fluoro-3-methyl-1H-pyrazol-5-yl)-4H-1,2,4-triazol-3-yl]imidazo[1,5-a]pyridine-3-carboxylic acid] | > 990
3 | CCn1nc(C)cc1-c1nnc(-c2cc(C(N)=O)cc3c2cnn3C[C@H]2[C@@H]3CNC[C@@H]32)[nH]1 [ZZZ058, 1-{[(1R,5S,6r)-3-azabicyclo[3.1.0]hexan-6-yl]methyl}-4-[5-(1-ethyl-3-methyl-1H-pyrazol-5-yl)-4H-1,2,4-triazol-3-yl]-1H-indazole-6-carboxamide] | > 990
4 | CCn1nc(C)cc1-c1nnc(-c2cc(C(N)=O)cc3c2cnn3CC[C@@H]2COCCN2)[nH]1 [ZZZ059, 4-[5-(1-ethyl-3-methyl-1H-pyrazol-5-yl)-4H-1,2,4-triazol-3-yl]-1-{2-[(3R)-morpholin-3-yl]ethyl}-1H-indazole-6-carboxamide] | 948
5 | CCn1nc(C)cc1-c1nnc(-c2cc(C(N)=O)cc3c2cnn3CC23CCCC2CNC3)[nH]1 (centres unmarked) [ZZZ060, 4-[5-(1-ethyl-3-methyl-1H-pyrazol-5-yl)-4H-1,2,4-triazol-3-yl]-1-[(hexahydrocyclopenta[c]pyrrol-3a(1H)-yl)methyl]-1H-indazole-6-carboxamide] | 541
6 | CCn1nc(C)cc1-c1nnc(-c2cc(C(N)=O)cc3c2cnn3[C@H]2CCCNC2)[nH]1 [ZZZ061, 4-[5-(1-ethyl-3-methyl-1H-pyrazol-5-yl)-4H-1,2,4-triazol-3-yl]-1-[(3S)-piperidin-3-yl]-1H-indazole-6-carboxamide] | 882
7 | CCn1ccc2c(-c3nc(-c4cc(C)nn4CCC(=O)O)n[nH]3)nc(C(N)=O)cc21 [ZZZ062, 3-{5-[5-(6-carbamoyl-1-ethyl-1H-pyrrolo[3,2-c]pyridin-4-yl)-1H-1,2,4-triazol-3-yl]-3-methyl-1H-pyrazol-1-yl}propanoic acid] | 543
8 | CCn1nc(C)cc1-c1nnc(-c2cc(C(N)=O)cc3c2cnn3C[C@@H]2CNCCO2)[nH]1 [ZZZ064, 4-[5-(1-ethyl-3-methyl-1H-pyrazol-5-yl)-4H-1,2,4-triazol-3-yl]-1-{[(2S)-morpholin-2-yl]methyl}-1H-indazole-6-carboxamide] | > 990
9 | CCn1nc(C)cc1-c1nnc(-c2cc(C(N)=O)cc3c2cnn3C[C@H]2C[C@H]3CC[C@@H](C2)N3)[nH]1 [ZZZ065, 1-{[(1R,3r,5S)-8-azabicyclo[3.2.1]octan-3-yl]methyl}-4-[5-(1-ethyl-3-methyl-1H-pyrazol-5-yl)-4H-1,2,4-triazol-3-yl]-1H-indazole-6-carboxamide] | 964
10 | CCn1nc(C)cc1-c1nnc(-c2cc(C(N)=O)cc3c2cnn3[C@H]2C[C@H](NC)C2)[nH]1 [ZZZ066, 4-[5-(1-ethyl-3-methyl-1H-pyrazol-5-yl)-4H-1,2,4-triazol-3-yl]-1-[(1r,3r)-3-(methylamino)cyclobutyl]-1H-indazole-6-carboxamide] | > 990
11 | CCn1nc(C)cc1-c1nnc(-c2cc(C(N)=O)cc3c2cnn3C2CCNCC2)[nH]1 [ZZZ067, 4-[5-(1-ethyl-3-methyl-1H-pyrazol-5-yl)-4H-1,2,4-triazol-3-yl]-1-(piperidin-4-yl)-1H-indazole-6-carboxamide] | 536
12 | CCn1nc(C)cc1-c1nnc(-c2cc(C(N)=O)cc3c2cnn3Cc2noc3c2CNCC3)[nH]1 [ZZZ068, 4-[5-(1-ethyl-3-methyl-1H-pyrazol-5-yl)-4H-1,2,4-triazol-3-yl]-1-[(4,5,6,7-tetrahydro[1,2]oxazolo[4,5-c]pyridin-3-yl)methyl]-1H-indazole-6-carboxamide] | > 990
13 | CCn1nc(C)cc1-c1nnc(-c2cc(C(N)=O)cc3c2cnn3CC2CC3(CCNC3)C2)[nH]1 (centres unmarked) [ZZZ070, 1-[(6-azaspiro[3.4]octan-2-yl)methyl]-4-[5-(1-ethyl-3-methyl-1H-pyrazol-5-yl)-4H-1,2,4-triazol-3-yl]-1H-indazole-6-carboxamide] | > 990
14 | CCn1nc(C)cc1-c1nnc(-c2cc(C(N)=O)cc3c2cnn3CCCNC2CCCCC2)[nH]1 [ZZZ071, 1-[3-(cyclohexylamino)propyl]-4-[5-(1-ethyl-3-methyl-1H-pyrazol-5-yl)-4H-1,2,4-triazol-3-yl]-1H-indazole-6-carboxamide] | > 990
15 | CCn1nc(C)cc1-c1nnc(-c2cc(C(N)=O)cc3c2cnn3CCC2CCNCC2)[nH]1 [ZZZ073, 4-[5-(1-ethyl-3-methyl-1H-pyrazol-5-yl)-4H-1,2,4-triazol-3-yl]-1-[2-(piperidin-4-yl)ethyl]-1H-indazole-6-carboxamide] | 650
16 | CCn1nc(C)cc1-c1nnc(-c2cc(C(N)=O)cc3c2cnn3CC2CC3CNCC3C2)[nH]1 (centres unmarked) [ZZZ074, 4-[5-(1-ethyl-3-methyl-1H-pyrazol-5-yl)-4H-1,2,4-triazol-3-yl]-1-[(octahydrocyclopenta[c]pyrrol-5-yl)methyl]-1H-indazole-6-carboxamide] | > 990
17 | CCn1nc(C)cc1-c1nnc(-c2cc(C(N)=O)cc3c2cnn3[C@H]2CC[C@@H](NC)CC2)[nH]1 [ZZZ075, 4-[5-(1-ethyl-3-methyl-1H-pyrazol-5-yl)-4H-1,2,4-triazol-3-yl]-1-[(1s,4s)-4-(methylamino)cyclohexyl]-1H-indazole-6-carboxamide] | 961
18 | CCn1nc(C)cc1-c1nnc(-c2cc(C(N)=O)cc3c2cnn3C[C@@H](C)C2CCNCC2)[nH]1 [ZZZ076, 4-[5-(1-ethyl-3-methyl-1H-pyrazol-5-yl)-4H-1,2,4-triazol-3-yl]-1-[(2S)-2-(piperidin-4-yl)propyl]-1H-indazole-6-carboxamide] | 976
19 | CCn1nc(C)cc1-c1nnc(-c2cc(C(N)=O)cc3c2cnn3CCCC2CCNCC2)[nH]1 [ZZZ077, 4-[5-(1-ethyl-3-methyl-1H-pyrazol-5-yl)-4H-1,2,4-triazol-3-yl]-1-[3-(piperidin-4-yl)propyl]-1H-indazole-6-carboxamide] | > 990
20 | CCn1nc(C)cc1-c1nnc(-c2cc(C(N)=O)cc3c2cnn3C[C@H](C)C2CCNCC2)[nH]1 [ZZZ078, 4-[5-(1-ethyl-3-methyl-1H-pyrazol-5-yl)-4H-1,2,4-triazol-3-yl]-1-[(2R)-2-(piperidin-4-yl)propyl]-1H-indazole-6-carboxamide] | 641
21 | CCn1nc(C)cc1-c1nnc(-c2cc(C(N)=O)cc3c2cnn3CCCC2CCCNC2)[nH]1 (centres unmarked) [ZZZ079, 4-[5-(1-ethyl-3-methyl-1H-pyrazol-5-yl)-4H-1,2,4-triazol-3-yl]-1-[3-(piperidin-3-yl)propyl]-1H-indazole-6-carboxamide] | 785
22 | CCn1nc(C)cc1-c1nnc(-c2cc(C(N)=O)cc3c2cnn3CC2CC3(CNC3)C2)[nH]1 [ZZZ080, 1-[(2-azaspiro[3.3]heptan-6-yl)methyl]-4-[5-(1-ethyl-3-methyl-1H-pyrazol-5-yl)-4H-1,2,4-triazol-3-yl]-1H-indazole-6-carboxamide] | > 990
23 | CCn1nc(C)cc1-c1nnc(-c2cc(C(N)=O)cc3c2cnn3[C@H]2C[C@@H](NC)C2)[nH]1 [ZZZ081, 4-[5-(1-ethyl-3-methyl-1H-pyrazol-5-yl)-4H-1,2,4-triazol-3-yl]-1-[(1s,3s)-3-(methylamino)cyclobutyl]-1H-indazole-6-carboxamide] | > 990
